Results reported in ChEMBL document CHEMBL1909294, “Translating clinical findings into knowledge in drug safety evaluation--drug induced liver injury prediction system (DILIps)” (PLoS Comput Biol, 2011).

Columns and labels:
Hepatotoxicity [1] = system: Hepatotoxicity;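 as to HepSE Combined Scores: combined hepatic side effect score as listed in the training data of the Drug Induced Liver Injury Prediction System (DILIps)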;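 as to HepSE cholelithiasis: hepatic side effect score for cholelithiasis, drawn from the DILIps training data for predicting drug-induced liver injury; call rule not given here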;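 as to HepSE cirrhosis: cirrhosis hepatic side effect score taken from the DILIps (drug-induced liver injury prediction) training set; call rule not given here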;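 as to HepSE elevated liver function tests: hepatic side effect score for raised liver function tests, as recorded in the DILIps training set used for predicting drug-induced liver injury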;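 as to HepSE hepatomegaly: hepatic side effect score for hepatomegaly, taken from the training set of the DILIps drug-induced liver injury prediction system; call rule not given here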;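 as to HepSE jaundice: Jaundice-related hepatic side-effect score drawn from the training data of the DILIps (drug-induced liver injury prediction system); call rule not given here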; as to HepSE liver disease: call rule not given here
Hepatotoxicity [2] = system: Hepatotoxicity; remark: listed apart in the source;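 as to HepSE Combined Scores: combined hepatic side effect score as listed in the training data of the Drug Induced Liver Injury Prediction System (DILIps)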;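 as to HepSE cholelithiasis: hepatic side effect score for cholelithiasis, drawn from the DILIps training data for predicting drug-induced liver injury; call rule not given here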;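 as to HepSE elevated liver function tests: hepatic side effect score for raised liver function tests, as recorded in the DILIps training set used for predicting drug-induced liver injury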;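 as to HepSE hepatomegaly: hepatic side effect score for hepatomegaly, taken from the training set of the DILIps drug-induced liver injury prediction system; call rule not given here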;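 as to HepSE jaundice: Jaundice-related hepatic side-effect score drawn from the training data of the DILIps (drug-induced liver injury prediction system); call rule not given here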; as to HepSE liver disease: call rule not given here
Hepatotoxicity [3] = system: Hepatotoxicity; remark: listed apart in the source;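 as to HepSE Combined Scores: combined hepatic side effect score as listed in the training data of the Drug Induced Liver Injury Prediction System (DILIps)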;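 as to HepSE cholelithiasis: hepatic side effect score for cholelithiasis, drawn from the DILIps training data for predicting drug-induced liver injury; call rule not given here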;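 as to HepSE elevated liver function tests: hepatic side effect score for raised liver function tests, as recorded in the DILIps training set used for predicting drug-induced liver injury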;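 as to HepSE hepatomegaly: hepatic side effect score for hepatomegaly, taken from the training set of the DILIps drug-induced liver injury prediction system; call rule not given here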;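 as to HepSE jaundice: Jaundice-related hepatic side-effect score drawn from the training data of the DILIps (drug-induced liver injury prediction system); call rule not given here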; as to HepSE liver disease: call rule not given here
Hepatotoxicity [4] = system: Hepatotoxicity; remark: listed apart in the source;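 as to HepSE Combined Scores: combined hepatic side effect score as listed in the training data of the Drug Induced Liver Injury Prediction System (DILIps)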;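 as to HepSE cholelithiasis: hepatic side effect score for cholelithiasis, drawn from the DILIps training data for predicting drug-induced liver injury; call rule not given here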;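 as to HepSE elevated liver function tests: hepatic side effect score for raised liver function tests, as recorded in the DILIps training set used for predicting drug-induced liver injury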;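 as to HepSE hepatomegaly: hepatic side effect score for hepatomegaly, taken from the training set of the DILIps drug-induced liver injury prediction system; call rule not given here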;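 as to HepSE jaundice: Jaundice-related hepatic side-effect score drawn from the training data of the DILIps (drug-induced liver injury prediction system); call rule not given here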; as to HepSE liver disease: call rule not given here
Hepatotoxicity [5] = system: Hepatotoxicity; remark: listed apart in the source; as to HepSE liver disease: call rule not given here
Hepatotoxicity [6] = system: Hepatotoxicity; remark: listed apart in the source; as to HepSE liver disease: call rule not given here
Hepatotoxicity [7] = system: Hepatotoxicity; remark: listed apart in the source
Hepatotoxicity [8] = system: Hepatotoxicity; remark: listed apart in the source
Hepatotoxicity [9] = system: Hepatotoxicity; remark: listed apart in the source
Hepatotoxicity [10] = system: Hepatotoxicity; remark: listed apart in the source
Hepatotoxicity [11] = system: Hepatotoxicity; remark: listed apart in the source
Hepatotoxicity [12] = system: Hepatotoxicity; remark: listed apart in the source
Hepatotoxicity [13] = system: Hepatotoxicity; remark: listed apart in the source
Hepatotoxicity [14] = system: Hepatotoxicity; remark: listed apart in the source

SMILES	HepSE_liver disease (Hepatotoxicity [1])	HepSE_cholelithiasis (Hepatotoxicity [2])	HepSE_Combined Scores (Hepatotoxicity [3])	HepSE_jaundice (Hepatotoxicity [4])	HepSE_elevated liver function tests (Hepatotoxicity [5])	HepSE_hepatomegaly (Hepatotoxicity [6])	HepSE_liver fatty (Hepatotoxicity [7])	HepSE_cirrhosis (Hepatotoxicity [8])	HepSE_hepatitis (Hepatotoxicity [9])	HepSE_hepatic necrosis (Hepatotoxicity [10])	HepSE_bilirubinemia (Hepatotoxicity [11])	HepSE_hepatic failure (Hepatotoxicity [12])	HepSE_liver function tests abnormal (Hepatotoxicity [13])	HepSE_cholecystitis (Hepatotoxicity [14])	other results
CO[C@H]1C[C@@H]2CC[C@@H](C)[C@@](O)(O2)C(=O)C(=O)N2CCCC[C@H]2C(=O)O[C@H]([C@H](C)C[C@@H]2CC[C@@H](O)[C@H](OC)C2)CC(=O)[C@H](C)/C=C(\C)[C@@H](O)[C@@H](OC)C(=O)[C@H](C)C[C@H](C)/C=C/C=C/C=C/1C [SIROLIMUS]	0	0	3	0	0	0	0	0	0	1	1	0	1	0	
CC(=O)[O-].[Na+] [SODIUM ACETATE]															HepSE_liver disease (Hepatotoxicity [1]; Liver): 0; HepSE_cholelithiasis (Hepatotoxicity [2]; Liver): 0; HepSE_Combined Scores (Hepatotoxicity [3]; Liver): 0; HepSE_jaundice (Hepatotoxicity [4]; Liver): 0; HepSE_elevated liver function tests (Hepatotoxicity [5]; Liver): 0; HepSE_hepatomegaly (Hepatotoxicity [6]; Liver): 0; HepSE_liver fatty (Hepatotoxicity [7]; Liver): 0; HepSE_cirrhosis (Hepatotoxicity [8]; Liver): 0; HepSE_hepatitis (Hepatotoxicity [9]; Liver): 0; HepSE_hepatic necrosis (Hepatotoxicity [10]; Liver): 0; HepSE_bilirubinemia (Hepatotoxicity [11]; Liver): 0; HepSE_hepatic failure (Hepatotoxicity [12]; Liver): 0; HepSE_liver function tests abnormal (Hepatotoxicity [13]; Liver): 0; HepSE_cholecystitis (Hepatotoxicity [14]; Liver): 0
O=C([O-])O.[Na+] [SODIUM BICARBONATE]															HepSE_liver disease (Hepatotoxicity [1]; Liver): 0; HepSE_cholelithiasis (Hepatotoxicity [2]; Liver): 0; HepSE_Combined Scores (Hepatotoxicity [3]; Liver): 0; HepSE_jaundice (Hepatotoxicity [4]; Liver): 0; HepSE_elevated liver function tests (Hepatotoxicity [5]; Liver): 0; HepSE_hepatomegaly (Hepatotoxicity [6]; Liver): 0; HepSE_liver fatty (Hepatotoxicity [7]; Liver): 0; HepSE_cirrhosis (Hepatotoxicity [8]; Liver): 0; HepSE_hepatitis (Hepatotoxicity [9]; Liver): 0; HepSE_hepatic necrosis (Hepatotoxicity [10]; Liver): 0; HepSE_bilirubinemia (Hepatotoxicity [11]; Liver): 0; HepSE_hepatic failure (Hepatotoxicity [12]; Liver): 0; HepSE_liver function tests abnormal (Hepatotoxicity [13]; Liver): 0; HepSE_cholecystitis (Hepatotoxicity [14]; Liver): 0
[Cl-].[Na+] [SODIUM CHLORIDE]	0	0	0	0	0	0	0	0	0	0	0	0	0	0	
O=C(O)CCC(=O)O.O=C(O[C@H]1CN2CCC1CC2)N1CCc2ccccc2[C@@H]1c1ccccc1 [SOLIFENACIN SUCCINATE]	0	0	1	0	0	0	0	0	0	0	0	0	1	0	
CNC(=O)c1cc(Oc2ccc(NC(=O)Nc3ccc(Cl)c(C(F)(F)F)c3)cc2)ccn1 [SORAFENIB]	0	0	2	1	0	0	0	0	0	0	0	0	0	1	
CC(C)NCC(O)c1ccc(NS(C)(=O)=O)cc1 (stereo not drawn) [SOTALOL]	0	0	0	0	0	0	0	0	0	0	0	0	0	0	
CN[C@@H]1[C@H](O)[C@H](NC)[C@H]2O[C@@]3(O)C(=O)C[C@@H](C)O[C@H]3O[C@@H]2[C@H]1O [SPECTINOMYCIN]	0	0	0	0	0	0	0	0	0	0	0	0	0	0	
CC(=O)S[C@@H]1CC2=CC(=O)CC[C@]2(C)[C@H]2CC[C@@]3(C)[C@@H](CC[C@@]34CCC(=O)O4)[C@H]12 [SPIRONOLACTONE]	0	0	0	0	0	0	0	0	0	0	0	0	0	0	
Cc1cn([C@H]2C=C[C@@H](CO)O2)c(=O)[nH]c1=O [STAVUDINE]	1	0	5	0	0	0	1	0	1	0	1	1	0	0	
[H]/N=C(/N)N[C@H]1[C@H](O)[C@@H](O)[C@H](O[C@@H]2O[C@@H](C)[C@](O)(C=O)[C@H]2O[C@@H]2O[C@@H](CO)[C@H](O)[C@@H](O)[C@@H]2NC)[C@@H](N/C(N)=N\[H])[C@@H]1O [STREPTOMYCIN]															HepSE_liver disease (Hepatotoxicity [1]; Liver): 0; HepSE_cholelithiasis (Hepatotoxicity [2]; Liver): 0; HepSE_Combined Scores (Hepatotoxicity [3]; Liver): 0; HepSE_jaundice (Hepatotoxicity [4]; Liver): 0; HepSE_elevated liver function tests (Hepatotoxicity [5]; Liver): 0; HepSE_hepatomegaly (Hepatotoxicity [6]; Liver): 0; HepSE_liver fatty (Hepatotoxicity [7]; Liver): 0; HepSE_cirrhosis (Hepatotoxicity [8]; Liver): 0; HepSE_hepatitis (Hepatotoxicity [9]; Liver): 0; HepSE_hepatic necrosis (Hepatotoxicity [10]; Liver): 0; HepSE_bilirubinemia (Hepatotoxicity [11]; Liver): 0; HepSE_hepatic failure (Hepatotoxicity [12]; Liver): 0; HepSE_liver function tests abnormal (Hepatotoxicity [13]; Liver): 0; HepSE_cholecystitis (Hepatotoxicity [14]; Liver): 0
CN(N=O)C(=O)N[C@@H](C=O)[C@@H](O)[C@H](O)[C@H](O)CO [STREPTOZOCIN]	0	0	0	0	0	0	0	0	0	0	0	0	0	0	
Clc1ccc(CSC(Cn2ccnc2)c2ccc(Cl)cc2Cl)cc1 (stereo not drawn) [SULCONAZOLE]	0	0	0	0		0	0	0	0	0	0	0		0	HepSE_elevated liver function tests (Hepatotoxicity [5]; Liver): 0; HepSE_liver function tests abnormal (Hepatotoxicity [13]; Liver): 0
CC(=O)NS(=O)(=O)c1ccc(N)cc1 [SULFACETAMIDE]	0	0	1	0	0	0	0	0	0	1	0	0	0	0	
O=C(O)c1cc(/N=N/c2ccc(S(=O)(=O)Nc3ccccn3)cc2)ccc1O [SULFASALAZINE]	0	0	7	1	1	0	0	1	1	1	0	1	1	0	
O=C1C(CC[S+]([O-])c2ccccc2)C(=O)N(c2ccccc2)N1c1ccccc1 (stereo not drawn) [SULFINPYRAZONE]	0	0	0	0	0	0	0	0	0	0	0	0	0	0	
Cc1noc(NS(=O)(=O)c2ccc(N)cc2)c1C [SULFISOXAZOLE]	0	0	2	1	0	0	0	0	1	0	0	0	0	0	
